Measured values published in patent publication US10517889B2, “Modulators of SMAD7 expression” (Ionis Pharmaceuticals, Inc., priority 2017, dated 2019).
Several values for one entry are separate records, joined by “and”; a condition that tells them apart may be missing. Equal values may be shown once. Strand notation (5' to 3'): a small letter for the sugar, then the base; units joined by * are phosphorothioate-linked, units joined directly phosphodiester-linked; [ ] holds rarer units or linkages, { } end groups; capitals alone tell only the bases. k = constrained ethyl (cEt); [5mC] = 5-methylcytosine; d = 2'-deoxy (DNA)

Legend:
[1] = tested on: human SMAD7 mRNA; test: Antisense inhibition of human SMAD7 mRNA expression in Hep3B cells by 3-10-3 cEt gapmers, 10,000 nM, electroporation (Example 2); assay type: cell-based; details: approximately 24 hours; for % inhibition of SMAD7 mRNA expression: electroporation, 10,000 nM antisense oligonucleotide, RTS5062, relative to untreated control cells
Summary of the method: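 Percent inhibition of SMAD7 mRNA, relative to untreated cells, after ~24 h exposure of electroporated Hep3B cells to 10,000 nM cEt gapmer; levels by qRT-PCR, corrected for total RNA.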

[2] = tested on: human SMAD7 mRNA; test: Dose-dependent inhibition of human SMAD7 mRNA expression in Hep3B cells (Example 3, Study 1 and 2); assay type: cell-based; details: electroporation; for % inhibition of SMAD7 mRNA expression: approximately 16 hours; for IC50: Study 2 (740-20000 nM)
Summary of the method: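 Hep3B cells, 20,000 per well, electroporated with antisense oligonucleotide at 0.31, 1.25, 5.00 or 20.00 μM (first series) or 0.74, 2.22, 6.67 or 20.00 μM (second series). After ~16 h, SMAD7 mRNA measured by RT-qPCR (RTS5062), normalised to RIBOGREEN total RNA. Percent inhibition vs untreated cells; IC50 derived.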

[3] = Hep3B cells, electroporation with 10,000 nM antisense oligonucleotide, RTS5062, percent inhibition of SMAD7 mRNA relative to untreated control cells
[4] = 740 nM, Study 2, relative to untreated control cells
[5] = SMAD7 mRNA, Hep3B cells, 10,000 nM antisense oligonucleotide, electroporation, primer probe set RTS5062, relative to untreated control cells

| Substance | % Inhibition [1, 3] [%] | % inhibition of SMAD7 mRNA expression [2, 4] | % inhibition of SMAD7 mRNA expression ([2]; 2220 nM, Study 2) | % inhibition of SMAD7 mRNA expression ([2]; 6670.0 nM, Study 2) | % inhibition of SMAD7 mRNA expression ([2]; 20000.0 nM, Study 2) | IC50 [2] | % Inhibition [1, 5] [%] | % inhibition of SMAD7 mRNA expression ([1]; Hep3B cells) [%] |
| --- | --- | --- | --- | --- | --- | --- | --- | --- |
| 799565 (kA*kG*kT*dA*dA*dA*d[5mC]*dA*dA*dT*dA*d[5mC]*d[5mC]*k[5mC]*kT*k[5mC]; antisense) [compound 799565] | 79 | 23% | 49% | 67% | 86% | 11000 nM |  |  |
| 799566 (kG*kA*kG*dT*dA*dA*dA*d[5mC]*dA*dA*dT*dA*d[5mC]*k[5mC]*k[5mC]*kT; antisense) [compound 799566] | 74 | 0% and 10% | 32% and 64% | 63% and 82% |  | 2000 nM and 1000 nM | 89 |  |
| 799568 (k[5mC]*kA*kT*dT*dA*dG*dA*dA*dG*d[5mC]*dT*dT*dT*kG*kA*kG; antisense) [compound 799568] | 62 | 49% | 58% | 84% | 92% | 6000 nM |  |  |
| 799572 (kA*k[5mC]*k[5mC]*dA*dT*d[5mC]*dT*dA*dA*d[5mC]*dA*dA*d[5mC]*kA*kT*k[5mC]; antisense) [compound 799572] | 79 | 0% | 35% | 62% | 66% | 1000 nM | 55 |  |
| 799577 (kT*kT*k[5mC]*d[5mC]*dG*dA*dA*dA*dG*dG*dA*d[5mC]*d[5mC]*k[5mC]*kT*kT; antisense) [compound 799577] |  | 35% | 64% | 75% | 86% | 2000 nM |  | 55 |
| 799583 (kA*kA*kG*dA*d[5mC]*dA*dA*dA*d[5mC]*d[5mC]*dT*dT*d[5mC]*k[5mC]*kG*kA; antisense) [compound 799583] | 74 | 26% and 31% | 61% and 46% | 73% and 59% | 65% and 83% | 3000 nM | 74 |  |
| 799589 (kA*kA*kT*dA*dT*d[5mC]*dT*dG*dT*dG*dT*d[5mC]*dT*kA*k[5mC]*kA; antisense) [compound 799589] | 65 | 15% | 58% | 77% | 82% | 4000 nM |  |  |
| 799596 (kA*k[5mC]*kT*d[5mC]*dT*dG*dA*dA*d[5mC]*dG*dG*dA*dA*kA*kG*kA; antisense) [compound 799596] |  | 14% | 35% | 66% | 83% | 5000 nM |  | 49 |
| 799605 (k[5mC]*k[5mC]*kA*dA*dT*dA*dA*dA*dG*dT*dT*d[5mC]*d[5mC]*k[5mC]*kT*kT; antisense) [compound 799605] | 56 | 18% | 46% | 51% | 75% | 8000 nM |  |  |
| 799607 (k[5mC]*k[5mC]*kA*dT*dT*dT*dA*d[5mC]*dA*dA*dA*dA*d[5mC]*kT*k[5mC]*kT; antisense) [compound 799607] | 71 | 5% | 12% | 46% | 76% | 2000 nM |  |  |
| 799608 (kA*k[5mC]*kG*dA*dT*d[5mC]*dA*dA*d[5mC]*dT*dT*d[5mC]*dT*kT*kG*kA; antisense) [compound 799608] | 70 | 35% | 56% | 70% | 76% | 3000 nM |  |  |
| 799624 (kT*kG*kA*dA*dA*dG*dT*dA*d[5mC]*dA*dA*dT*d[5mC]*kT*k[5mC]*k[5mC]; antisense) [compound 799624] | 58 | 2% | 50% | 77% | 89% | 6000 nM |  |  |
| 799631 (k[5mC]*k[5mC]*kA*dA*dA*dT*d[5mC]*dA*d[5mC]*dA*dA*dA*dG*k[5mC]*kA*kG; antisense) [compound 799631] | 82 | 0% | 25% | 49% | 88% | 3000 nM |  |  |
| 799663 (antisense kG*k[5mC]*kA*d[5mC]*dA*dG*d[5mC]*d[5mC]*dA*dA*dG*dA*dG*kA*kT*kG) [compound 799663] | 57 | 19% | 43% | 61% | 89% | > 20000 nM |  |  |
| 799667 (antisense kA*k[5mC]*kA*dG*dA*dT*dG*d[5mC]*d[5mC]*dA*dG*d[5mC]*dA*kA*kG*kG) [compound 799667] | 79 | 8% | 8% | 17% | 47% | 9000 nM |  |  |
| 799668 (antisense kG*kA*k[5mC]*dA*dG*dA*dT*dG*d[5mC]*d[5mC]*dA*dG*d[5mC]*kA*kA*kG) [compound 799668] | 75 | 15% | 17% | 39% | 72% | 1000 nM |  |  |
| 799669 (antisense kT*kA*kT*dG*dA*d[5mC]*dA*dG*dA*dT*dG*d[5mC]*d[5mC]*kA*kG*k[5mC]) [compound 799669] | 81 | 47% | 72% | 82% | 95% | 3000 nM |  |  |
| 799671 (antisense kA*kG*kG*dT*dA*dT*dT*dT*dT*dT*dG*dA*dA*kG*kG*k[5mC]) [compound 799671] | 59 | 22% | 56% | 71% | 74% | 2000 nM |  |  |
| 799673 (antisense k[5mC]*kT*kG*dA*dT*dT*dA*dA*d[5mC]*dT*dT*dT*d[5mC]*k[5mC]*kT*kT) [compound 799673] |  | 29% | 66% | 74% | 86% | 4000 nM |  | 64 |
